Values of other authors in US20150320814A1, “NUTRACEUTICAL FORMULATION FOR TREATMENT OF ANXIETY AND DEPRESSION” (priority 2014, published 2015).
Values belong to the molecule of their own block, whether it stands above or below them.

Assays:
alpha brain waves = conditions: sixty minutes after oral administration, volunteers
[1] = in vivo
GABA receptors = conditions: isolated from skullcap
[2] = system: patients with major depression; conditions: 125-300 mg of magnesium with each meal and at bedtime
[3] = system: patients with clinical depression; conditions: patients with clinical depression treated with nicotinic acid

blood brain barrier passage [1]: passes through the blood brain barrier
Compound: CCNC(=O)CC[C@H](N)C(=O)O [Theanine, L-theanine]

activity at GABA receptors (GABA receptors): agonists of GABA receptors
Compound: O=c1cc(-c2ccccc2)oc2cc(O)c(O)c(O)c12 [baicalein]

activity at GABA receptors (GABA receptors): agonists of GABA receptors
Compound: O=C(O)[C@H]1O[C@@H](Oc2cc3oc(-c4ccccc4)cc(=O)c3c(O)c2O)[C@H](O)[C@@H](O)[C@@H]1O [baicalin]

The next lines start with the molecule.

Compound: NCCCC(=O)O [GABA, gamma aminobutyric acid]
alpha brain waves by electroencephalogram (alpha brain waves): increases in alpha brain waves

Compound: [Mg+2] [magnesium]
recovery from major depression [2]: Rapid recovery

Compound: O=C(O)c1cccnc1 [nicotinic acid]
patients showing significant improvements in mood [3]: 14 of 15
